Assay results published in patent publication US20230048132A1, “CYCLIN-DEPENDENT KINASE INHIBITORS” (SPV THERAPEUTICS INC., priority 2018, published 2023).
Read-outs that look alike come from different tables or passages of the source.

Tests used:
CDK4-CYCLIND1 = CDK4-CYCLIND1 (Homo sapiens, UniProt P11802); test: CDK inhibition assay (microfluidic LabChip, IC50 format)
CDK6-CYCLIND3 = target: T1, CDK6-CYCLIND3 (Homo sapiens, UniProt Q00534); test: as above; assay type: biochemical; conditions: Table 4b
T1 construct: purchased Carna
T1 sequence (Q00534 whole entry): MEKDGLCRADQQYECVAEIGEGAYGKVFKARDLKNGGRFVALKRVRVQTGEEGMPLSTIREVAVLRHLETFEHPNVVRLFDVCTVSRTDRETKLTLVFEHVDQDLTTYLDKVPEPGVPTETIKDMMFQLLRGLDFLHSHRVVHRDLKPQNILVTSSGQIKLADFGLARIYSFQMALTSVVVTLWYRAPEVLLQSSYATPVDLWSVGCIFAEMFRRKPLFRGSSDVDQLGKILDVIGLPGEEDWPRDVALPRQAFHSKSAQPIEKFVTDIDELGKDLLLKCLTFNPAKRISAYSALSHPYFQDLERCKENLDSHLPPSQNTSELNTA
T1 sequence (P30281 whole entry partner): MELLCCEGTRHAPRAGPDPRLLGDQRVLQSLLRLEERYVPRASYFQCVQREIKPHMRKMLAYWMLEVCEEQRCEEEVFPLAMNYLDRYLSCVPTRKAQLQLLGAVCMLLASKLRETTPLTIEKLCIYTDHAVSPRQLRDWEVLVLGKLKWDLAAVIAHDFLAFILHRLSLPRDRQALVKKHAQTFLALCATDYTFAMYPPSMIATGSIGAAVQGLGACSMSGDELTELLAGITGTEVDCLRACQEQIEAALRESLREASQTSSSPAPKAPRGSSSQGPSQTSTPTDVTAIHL

[1] = CDK4 IC50, Table 4b, upper part
[2] = upper part, read-out: CDK6 IC50
[3] = CDK4 CyclinD1 IC50, Table 4b, lower part, a second value in parentheses for some compounds
[4] = lower part, read-out: CDK6 CyclinD3 IC50

Chain of CDK4-CYCLIND1 (P11802 whole entry): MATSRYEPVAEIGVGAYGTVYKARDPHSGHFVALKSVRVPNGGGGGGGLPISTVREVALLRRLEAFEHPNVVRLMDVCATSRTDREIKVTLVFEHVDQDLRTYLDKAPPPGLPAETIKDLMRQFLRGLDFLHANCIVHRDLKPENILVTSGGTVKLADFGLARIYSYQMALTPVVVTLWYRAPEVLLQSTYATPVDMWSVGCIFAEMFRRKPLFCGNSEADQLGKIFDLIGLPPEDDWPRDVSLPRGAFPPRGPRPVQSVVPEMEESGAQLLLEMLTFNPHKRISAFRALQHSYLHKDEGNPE
Chain of CDK4-CYCLIND1 (P24385 whole entry partner): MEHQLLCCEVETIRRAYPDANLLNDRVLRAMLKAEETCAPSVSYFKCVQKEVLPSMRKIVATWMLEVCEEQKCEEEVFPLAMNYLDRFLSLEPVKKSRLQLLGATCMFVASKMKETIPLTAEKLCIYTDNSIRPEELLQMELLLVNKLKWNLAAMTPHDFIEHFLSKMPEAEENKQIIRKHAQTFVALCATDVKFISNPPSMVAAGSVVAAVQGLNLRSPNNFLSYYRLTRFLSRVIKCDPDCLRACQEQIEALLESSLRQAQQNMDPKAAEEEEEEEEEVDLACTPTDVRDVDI

SMILES	IC50 (CDK4-CYCLIND1; [1])	IC50 (CDK6-CYCLIND3; [2])	IC50 (CDK4-CYCLIND1; [3])	IC50 (CDK6-CYCLIND3; [4])
CC(C)N1CCN(c2ccc(Nc3ncc4c(n3)N(C3CCCC3)C(=O)C3(CC(=O)N(C)C3=O)C4)cn2)CC1 (stereo not shown) [Example D26, 8-cyclopentyl-2-((6-(4-isopropylpiperazin-1-yl)pyridin-3-yl)amino)-1′-methyl-5,8-dihydro-7H-spiro[pyrido[2,3-d]pyrimidine-6,3′-pyrrolidine]-2′,5′,7-trione]	105 nM	311 nM		
CN1C(=O)CC2(Cc3cnc(Nc4ccc(N5CCNCC5)c(F)c4)nc3N(C3CCCC3)C2=O)C1=O (stereo not shown) [Example D27, 8-cyclopentyl-2-((3-fluoro-4-(piperazin-1-yl)phenyl)amino)-1′-methyl-5,8-dihydro-7H-spiro[pyrido[2,3-d]pyrimidine-6,3′-pyrrolidine]-2′,5′,7-trione]	34.8 nM	141 nM		
CN(C)CCOc1ccc(Nc2ncc3c(n2)N(C2CCCC2)C(=O)C2(CC(=O)N(C)C2=O)C3)cc1 (stereo not shown) [Example D28, 8-cyclopentyl-2-((4-(2-(dimethylamino)ethoxy)phenyl)amino)-1′-methyl-5,8-dihydro-7H-spiro[pyrido[2,3-d]pyrimidine-6,3′-pyrrolidine]-2′,5′,7-trione]	155 nM	491 nM		
CN(C)CCOc1ccc(Nc2ncc3c(n2)N(C2CCCC2)C(=O)C2(CC(=O)N(C)C2=O)C3)cn1 (stereo not shown) [Example D29, 8-cyclopentyl-2-((6-(2-(dimethylamino)ethoxy)pyridin-3-yl)amino)-1′-methyl-5,8-dihydro-7H-spiro[pyrido[2,3-d]pyrimidine-6,3′-pyrrolidine]-2′,5′,7-trione]	367 nM	1050 nM		
CN1C(=O)CC2(Cc3cnc(Nc4ccc(OCCN5CCCC5)c(F)c4)nc3N(C3CCCC3)C2=O)C1=O (stereo not shown) [Example D30, 8-cyclopentyl-2-((3-fluoro-4-(2-(pyrrolidin-1-yl)ethoxy)phenyl)amino)-1′-methyl-5,8-dihydro-7H-spiro[pyrido[2,3-d]pyrimidine-6,3′-pyrrolidine]-2′,5′,7-trione]	472 nM	1450 nM		
CN1C(=O)CC2(Cc3cnc(Nc4ccc(OCCN5CCCC5)nc4)nc3N(C3CCCC3)C2=O)C1=O (stereo not shown) [Example D31, 8-cyclopentyl-1′-methyl-2-((6-(2-(pyrrolidin-1-yl)ethoxy)pyridin-3-yl)amino)-5,8-dihydro-7H-spiro[pyrido[2,3-d]pyrimidine-6,3′-pyrrolidine]-2′,5′,7-trione]	185 nM	628 nM		
O=C1NCCC12Cc1cnc(Nc3ccc(N4CCNCC4)cc3F)nc1N(C1CCCC1)C2=O (stereo not shown) [Example D32, 8-cyclopentyl-2-((2-fluoro-4-(piperazin-1-yl)phenyl)amino)-5,8-dihydro-7H-spiro[pyrido[2,3-d]pyrimidine-6,3′-pyrrolidine]-2′,7-dione]	5.16 nM	11.2 nM		
CC(C)N1CCN(c2ccc(Nc3ncc4c(n3)N(C3CCCC3)C(=O)C3(CCNC3=O)C4)c(F)c2)CC1 (stereo not shown) [Example D33, 8-cyclopentyl-2-((2-fluoro-4-(4-isopropylpiperazin-1-yl)phenyl)amino)-5,8-dihydro-7H-spiro[pyrido[2,3-d]pyrimidine-6,3′-pyrrolidine]-2′,7-dione]	9340 nM	22600 nM		
O=C1NCCC12Cc1cnc(Nc3ccc(OCCN4CCCCC4)cn3)nc1N(C1CCCC1)C2=O (stereo not shown) [Example D34, 8-cyclopentyl-2-((5-(2-(piperidin-1-yl)ethoxy)pyridin-2-yl)amino)-5,8-dihydro-7H-spiro[pyrido[2,3-d]pyrimidine-6,3′-pyrrolidine]-2′,7-dione]	44.6 nM	56.5 nM		
O=C1NCCC12Cc1cnc(Nc3ccc(OCCN4CCCCC4)nc3)nc1N(C1CCCC1)C2=O (stereo not shown) [Example D35]	7.01 nM	14.4 nM		
Cc1cc(Nc2ncc3c(n2)N(C2CCCC2)C(=O)C2(CCNC2=O)C3)ccc1N1CCN(C(C)C)CC1 (stereo not shown) [Example D36, 8-cyclopentyl-2-((4-(4-isopropylpiperazin-1-yl)-3-methylphenyl)amino)-5,8-dihydro-7H-spiro[pyrido[2,3-d]pyrimidine-6,3′-pyrrolidine]-2′,7-dione]	1.96 nM	4.53 nM		
COc1cc(Nc2ncc3c(n2)N(C2CCCC2)C(=O)C2(CCNC2=O)C3)ccc1N1CCN(C(C)C)CC1 (stereo not shown) [Example D37, 8-cyclopentyl-2-((4-(4-isopropylpiperazin-1-yl)-3-methoxyphenyl)amino)-5,8-dihydro-7H-spiro[pyrido[2,3-d]pyrimidine-6,3′-pyrrolidine]-2′,7-dione]	3.18 nM	8.12 nM		
O=C1NCCC12Cc1cnc(Nc3ccc(N4CCC(N5CCOCC5)CC4)c(F)c3)nc1N(C1CCCC1)C2=O (stereo not shown) [Example D38, 8-cyclopentyl-2-((3-fluoro-4-(4-morpholinopiperidin-1-yl)phenyl)amino)-5,8-dihydro-7H-spiro[pyrido[2,3-d]pyrimidine-6,3′-pyrrolidine]-2′,7-dione]	3.87 nM	7.1 nM		
O=C1NCCC12Cc1cnc(Nc3ccc(N4CCC(N5CCOCC5)CC4)cn3)nc1N(C1CCCC1)C2=O (stereo not shown) [Example D39, 8-cyclopentyl-2-((5-(4-morpholinopiperidin-1-yl)pyridin-2-yl)amino)-5,8-dihydro-7H-spiro[pyrido[2,3-d]pyrimidine-6,3′-pyrrolidine]-2′,7-dione]	7.29 nM	13.3 nM		
O=C1NCCC12Cc1cnc(Nc3ccc(N4CC5(CNC5)C4)cc3)nc1N(C1CCCC1)C2=O (stereo not shown) [Example D40, 2-((4-(2,6-diazaspiro[3.3]heptan-2-yl)phenyl)amino)-8-cyclopentyl-5,8-dihydro-7H-spiro[pyrido[2,3-d]pyrimidine-6,3′-pyrrolidine]-2′,7-dione]	2.12 nM	4.93 nM		
O=C1NCCC12Cc1cnc(Nc3ccc(N4CC5(CNC5)C4)cn3)nc1N(C1CCCC1)C2=O (stereo not shown) [Example D41, 2-((5-(2,6-diazaspiro[3.3]heptan-2-yl)pyridin-2-yl)amino)-8-cyclopentyl-5,8-dihydro-7H-spiro[pyrido[2,3-d]pyrimidine-6,3′-pyrrolidine]-2′,7-dione]	4.61 nM	8.79 nM		
O=C1NCCC12Cc1cnc(Nc3ccc(N4CC5(CNC5)C4)nc3)nc1N(C1CCCC1)C2=O (stereo not shown) [Example D42, 2-((6-(2,6-diazaspiro[3.3]heptan-2-yl)pyridin-3-yl)amino)-8-cyclopentyl-5,8-dihydro-7H-spiro[pyrido[2,3-d]pyrimidine-6,3′-pyrrolidine]-2′,7-dione]	2.72 nM	6.19 nM		
O=C1NCCC12Cc1cnc(Nc3ccc(N4CC5(CNC5)C4)c(F)c3)nc1N(C1CCCC1)C2=O (stereo not shown) [Example D43]	2.42 nM	4.95 nM		
CN(C)[C@H]1CCN(c2ccc(Nc3ncc4c(n3)N(C3CCCC3)C(=O)C3(CCNC3=O)C4)cc2)C1 (stereo partly drawn) [Example D44, 8-cyclopentyl-2-((4-((S)-3-(dimethylamino)pyrrolidin-1-yl)phenyl)amino)-5,8-dihydro-7H-spiro[pyrido[2,3-d]pyrimidine-6,3′-pyrrolidine]-2′,7-dione]	12 nM	24.6 nM		
CN(C)[C@H]1CCN(c2ccc(Nc3ncc4c(n3)N(C3CCCC3)C(=O)C3(CCNC3=O)C4)cc2F)C1 (stereo partly drawn) [Example D45, 8-cyclopentyl-2-((4-((S)-3-(dimethylamino)pyrrolidin-1-yl)-3-fluorophenyl)amino)-5,8-dihydro-7H-spiro[pyrido[2,3-d]pyrimidine-6,3′-pyrrolidine]-2′,7-dione]	2.68 nM	5.46 nM		
CN(C)[C@H]1CCN(C(=O)c2ccc(Nc3ncc4c(n3)N(C3CCCC3)C(=O)C3(CCNC3=O)C4)cc2)C1 (stereo partly drawn) [Example D46, 8-cyclopentyl-2-((4-((S)-3-(dimethylamino)pyrrolidine-1-carbonyl)phenyl)amino)-5,8-dihydro-7H-spiro[pyrido[2,3-d]pyrimidine-6,3′-pyrrolidine]-2′,7-dione]	3.23 nM	8.36 nM		
CN(C)[C@H]1CCN(C(=O)c2ccc(Nc3ncc4c(n3)N(C3CCCC3)C(=O)C3(CCNC3=O)C4)cn2)C1 (stereo partly drawn) [Example D47, 8-cyclopentyl-2-((6-((S)-3-(dimethylamino)pyrrolidine-1-carbonyl)pyridin-3-yl)amino)-5,8-dihydro-7H-spiro[pyrido[2,3-d]pyrimidine-6,3′-pyrrolidine]-2′,7-dione]	3.37 nM	10.6 nM		
CN(C)[C@H]1CCN(C(=O)c2ccc(Nc3ncc4c(n3)N(C3CCCC3)C(=O)C3(CCNC3=O)C4)cc2F)C1 (stereo partly drawn) [Example D48, 8-cyclopentyl-2-((4-((S)-3-(dimethylamino)pyrrolidine-1-carbonyl)-3-fluorophenyl)amino)-5,8-dihydro-7H-spiro[pyrido[2,3-d]pyrimidine-6,3′-pyrrolidine]-2′,7-dione]	1.95 nM	5.53 nM		
CC(C)N1CCN(c2ccc(Nc3ncc4c(n3)N(C3CCCC3)C(=O)[C@]3(CCNC3=O)C4)cn2)CC1 [Example D151, (S)-8-cyclopentyl-2-((6-(4-isopropylpiperazin-1-yl)pyridin-3-yl)amino)-5,8-dihydro-7H-spiro[pyrido[2,3-d]pyrimidine-6,3′-pyrrolidine]-2′,7-dione]			1.75 nM	2.8 nM
O=C1NCC[C@@]12Cc1cnc(Nc3ccc(OCCN4CCCC4)nc3)nc1N(C1CCCC1)C2=O [Example D191, (S)-8-cyclopentyl-2-((6-(2-(pyrrolidin-1-yl)ethoxy)pyridin-3-yl)amino)-5,8-dihydro-7H-spiro[pyrido[2,3-d]pyrimidine-6,3′-pyrrolidine]-2′,7-dione]			6.27 nM	11.2 nM
O=C1NCC[C@@]12Cc1cnc(Nc3ccc(OCCN4CCCCC4)nc3)nc1N(C1CCCC1)C2=O [Example D192, (S)-8-cyclopentyl-2-((6-(2-(piperidin-1-yl)ethoxy)pyridin-3-yl)amino)-5,8-dihydro-7H-spiro[pyrido[2,3-d]pyrimidine-6,3′-pyrrolidine]-2′,7-dione]			4.58 nM	8.52 nM
